Assay results published in PubChem BioAssay AID248 (DTP/NCI, 2004).
Values joined by “and” are separate entries in the source; they are usually repeats but may differ in a detail not shown here. Equal entries are not always repeated. Toxic doses and inconclusive results are not listed. Cut-off read from the data, not from the text of the source: active = T/C of 150% or more; inactive = T/C below 125%.

System: L1210 leukemia ip in BDF1 mice, survival T/C
Test: NCI In Vivo Anticancer Drug Screen. Data for tumor model L1210 Leukemia (intraperitoneal) in B6D2F1 (BDF1) mice
Conditions: endpoint: mean survival time, higher = longer survival
How it was run: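 Value reflects the ratio of survival in compound-treated mice to survival in vehicle-treated controls, with both groups carrying the same transplanted tumor.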

[1] = dose: 100.0 mg/kg/injection, schedule: Q04DX003 (ip), vehicle: saline with Tween-80
[2] = dose: 200.0 mg/kg/injection, schedule: Q04DX003 (ip), vehicle: saline with Tween-80
[3] = dose: 100.0 mg/kg/injection, schedule: Q01DX009 (ip), vehicle: saline with Tween-80
[4] = dose: 200.0 mg/kg/injection, schedule: Q01DX009 (ip), vehicle: saline with Tween-80
[5] = dose: 400.0 mg/kg/injection, schedule: Q01DX009 (ip), vehicle: saline with Tween-80
[6] = dose: 100.0 mg/kg/injection, schedule: Q04DX003 (ip), vehicle: Klucel (hydroxypropylcellulose) (HPC)
[7] = dose: 200.0 mg/kg/injection, schedule: Q04DX003 (ip), vehicle: Klucel (hydroxypropylcellulose) (HPC)
[8] = dose: 400.0 mg/kg/injection, schedule: Q04DX003 (ip), vehicle: Klucel (hydroxypropylcellulose) (HPC)
[9] = dose: 50.0 mg/kg/injection, schedule: Q04DX003 (ip), vehicle: Klucel (hydroxypropylcellulose) (HPC)
[10] = dose: 400.0 mg/kg/injection, schedule: Q04DX003 (ip), vehicle: saline with Tween-80
[11] = dose: 3.12 mg/kg/injection, schedule: Q01DX009 (ip), vehicle: saline
[12] = dose: 6.25 mg/kg/injection, schedule: Q01DX009 (ip), vehicle: saline
[13] = dose: 12.5 mg/kg/injection, schedule: Q01DX009 (ip), vehicle: saline
[14] = dose: 50.0 mg/kg/injection, schedule: Q04DX003 (ip), vehicle: saline

Measured: T/C

COc1ccc2c3c(c4cc(OC)c(OC)cc4c2c1)C[C@H]1CCCCN1C3
inactive: dose: 0.06 mg/kg/injection, schedule: Q01DX Z (ip), vehicle: carboxymethylcellulose (CMC) 103 % of control | dose: 0.12 mg/kg/injection, schedule: Q01DX Z (ip), vehicle: carboxymethylcellulose (CMC) 108 % of control | dose: 0.25 mg/kg/injection, schedule: Q01DX Z (ip), vehicle: carboxymethylcellulose (CMC) 105 % of control | dose: 0.25 mg/kg/injection, schedule: Q01DX Z (ip), vehicle: other 116 % of control | dose: 0.5 mg/kg/injection, schedule: Q01DX Z (ip), vehicle: carboxymethylcellulose (CMC) 114 % of control and 124 % of control | dose: 0.5 mg/kg/injection, schedule: Q01DX Z (ip), vehicle: other 123 % of control | dose: 0.5 mg/kg/injection, schedule: Q01DX Z (ip), vehicle: saline 115 % of control | dose: 1.0 mg/kg/injection, schedule: Q01DX001 (ip), vehicle: saline 105 % of control | dose: 1.0 mg/kg/injection, schedule: Q01DX Z (ip), vehicle: carboxymethylcellulose (CMC) 122 % of control | dose: 1.0 mg/kg/injection, schedule: Q01DX Z (ip), vehicle: saline 115 % of control | dose: 2.0 mg/kg/injection, schedule: Q01DX001 (ip), vehicle: saline 105 % of control | dose: 2.0 mg/kg/injection, schedule: Q01DX Z (ip), vehicle: other 88 % of control | dose: 4.0 mg/kg/injection, schedule: Q01DX001 (ip), vehicle: saline 111 % of control

CCCCCCCCCCCCN1CCCC(O)C1 (stereo not drawn)
inactive: [1] 93 % of control | [2] 88 % of control

Cc1ccc(NC(=O)OCCSC(=O)COc2ccc(Cl)cc2Cl)cc1
inactive: [3] 93 % of control | [4] 98 % of control | [5] 104 % of control

CC(O)(C(=O)c1ccccc1)c1ccc(Cl)cc1 (stereo not drawn)
inactive: [6] 95 % of control | [7] 98 % of control | [8] 101 % of control

NC1CCC(CC2CCCC2)CC1 (stereo not drawn)
inactive: dose: 25.0 mg/kg/injection, schedule: Q04DX003 (ip), vehicle: Klucel (hydroxypropylcellulose) (HPC) 96 % of control | [9] 93 % of control | [6] 104 % of control and 90 % of control

COB1OB(OC)OB(OC)O1
inactive: dose: 500.0 mg/kg/injection, schedule: Q01DX Z (ip), vehicle: other 94 % of control | dose: 750.0 mg/kg/injection, schedule: Q01DX Z (ip), vehicle: other 104 % of control | dose: 1000.0 mg/kg/injection, schedule: Q01DX001 (ip), vehicle: carboxymethylcellulose (CMC) 109 % of control | dose: 1000.0 mg/kg/injection, schedule: Q01DX Z (ip), vehicle: other 107 % of control | dose: 1500.0 mg/kg/injection, schedule: Q01DX Z (ip), vehicle: other 118 % of control | dose: 2000.0 mg/kg/injection, schedule: Q01DX001 (ip), vehicle: carboxymethylcellulose (CMC) 113 % of control | dose: 3000.0 mg/kg/injection, schedule: Q01DX001 (ip), vehicle: carboxymethylcellulose (CMC) 113 % of control

CC/C=C(\C)C1(CC)C(=O)NC(=S)NC1=O
inactive: dose: 75.0 mg/kg/injection, schedule: Q01DX001 (ip), vehicle: carboxymethylcellulose (CMC) 89 % of control

CC1(C(=O)O)CC12c1ccccc1-c1ccccc12 (stereo not drawn)
inactive: dose: 100.0 mg/kg/injection, schedule: Q01DX001 (ip), vehicle: acetone 103 % of control | dose: 200.0 mg/kg/injection, schedule: Q01DX001 (ip), vehicle: acetone 92 % of control

CCOC(=O)C1=C(C)NC(C)=C(C(C)=O)C1c1ccnc2ccccc12 (stereo not drawn)
inactive: [3] 98 % of control | [1] 95 % of control | [4] 102 % of control | [2] 92 % of control | [5] 100 % of control | [10] 100 % of control

CCOc1cccc2c1OC(CN1CCC3(CC1)C(=O)NCN3c1ccccc1)CO2 (stereo not drawn)
inactive: [6] 116 % of control | [7] 115 % of control | [8] 115 % of control

O=[N+]([O-])c1ccc(N=Nc2ccc(O)cc2)cc1
inactive: dose: 55.0 mg/kg/injection, schedule: Q01DX Z (ip), vehicle: methylcellulose (MC) 103 % of control | dose: 83.0 mg/kg/injection, schedule: Q01DX Z (ip), vehicle: methylcellulose (MC) 117 % of control | [1] 98 % of control | dose: 125.0 mg/kg/injection, schedule: Q01DX Z (ip), vehicle: methylcellulose (MC) 103 % of control | [2] 91 % of control | [10] 98 % of control

Oc1ccc2[nH]c3c(c2c1)C[P+](Cc1cccc2ccccc12)(c1ccccc1)CC3 (stereo not drawn)
inactive: dose: 100.0 mg/kg/injection, schedule: Q01DX001 (ip), vehicle: Klucel (hydroxypropylcellulose) (HPC) 98 % of control | dose: 200.0 mg/kg/injection, schedule: Q01DX001 (ip), vehicle: Klucel (hydroxypropylcellulose) (HPC) 93 % of control | dose: 400.0 mg/kg/injection, schedule: Q01DX001 (ip), vehicle: Klucel (hydroxypropylcellulose) (HPC) 96 % of control

CCCCn1cnc(=O)c2[nH]cnc21
inactive: [11] 90 % of control | [12] 94 % of control | [13] 95 % of control | dose: 25.0 mg/kg/injection, schedule: Q01DX001 (ip), vehicle: saline 98 % of control | dose: 25.0 mg/kg/injection, schedule: Q04DX003 (ip), vehicle: saline 96 % of control | dose: 50.0 mg/kg/injection, schedule: Q01DX001 (ip), vehicle: saline 96 % of control | dose: 50.0 mg/kg/injection, schedule: Q01DX009 (ip), vehicle: saline 97 % of control | [14] 105 % of control | dose: 100.0 mg/kg/injection, schedule: Q01DX001 (ip), vehicle: saline 100 % of control | dose: 100.0 mg/kg/injection, schedule: Q01DX009 (ip), vehicle: saline 87 % of control | dose: 100.0 mg/kg/injection, schedule: Q04DX003 (ip), vehicle: saline 107 % of control

O=C(Nc1ccc(F)cc1)c1ccccc1Cl
inactive: dose: 100.0 mg/kg/injection, schedule: Q01DX009 (ip), vehicle: acetone 98 % of control | dose: 200.0 mg/kg/injection, schedule: Q01DX009 (ip), vehicle: acetone 102 % of control | dose: 400.0 mg/kg/injection, schedule: Q01DX009 (ip), vehicle: acetone 102 % of control

O=C(CCl)Nc1ccc(Br)cc1
inactive: [3] 109 % of control | [4] 96 % of control

O=C1NC(=O)C2CCCCC12 (stereo not drawn)
inactive: dose: 100.0 mg/kg/injection, schedule: Q04DX002 (ip), vehicle: saline with Tween-80 90 % of control | [1] 96 % of control | dose: 200.0 mg/kg/injection, schedule: Q04DX002 (ip), vehicle: saline with Tween-80 121 % of control | [2] 104 % of control | dose: 400.0 mg/kg/injection, schedule: Q04DX002 (ip), vehicle: saline with Tween-80 107 % of control | [10] 104 % of control

O=c1[nH]cnc2ccc([N+](=O)[O-])cc12
inactive: [9] 101 % of control | [6] 103 % of control

O=C(CCCN1CCC2(CC1)C(=O)NCN2c1ccccc1)c1ccc(F)cc1
inactive: dose: 0.78 mg/kg/injection, schedule: Q01DX009 (ip), vehicle: saline 96 % of control | dose: 0.78 mg/kg/injection, schedule: Q04DX003 (ip), vehicle: saline 98 % of control | dose: 1.56 mg/kg/injection, schedule: Q01DX009 (ip), vehicle: saline 105 % of control | dose: 1.56 mg/kg/injection, schedule: Q04DX003 (ip), vehicle: saline 96 % of control | [11] 107 % of control | dose: 3.12 mg/kg/injection, schedule: Q04DX003 (ip), vehicle: saline 105 % of control | [12] 97 % of control | dose: 6.25 mg/kg/injection, schedule: Q04DX003 (ip), vehicle: saline 106 % of control | [13] 92 % of control | dose: 12.5 mg/kg/injection, schedule: Q04DX003 (ip), vehicle: saline 124 % of control | [14] 120 % of control | dose: 200.0 mg/kg/injection, schedule: Q04DX003 (ip), vehicle: saline 93 % of control

Cc1ccccc1Nc1cc(=O)[nH]c(N)n1
inactive: dose: 100.0 mg/kg/injection, schedule: Q01DX Z (ip), vehicle: methylcellulose (MC) 102 % of control | dose: 200.0 mg/kg/injection, schedule: Q01DX Z (ip), vehicle: methylcellulose (MC) 102 % of control

N#CC(C#N)=Cc1ccc2ccccc2c1Br
inactive: [3] 96 % of control | [4] 94 % of control | [5] 90 % of control
